Measurements taken from patent publication US20070161551A1, “Methods and compositions for the treatment of lipodystrophy” (priority 2004, published 2007).
Where two headings read alike, the source gives them in different places.

Experiments:
[1] = system: patients with HIV/AIDS; details: cited from earlier work; for insulin-like growth factor-I (IGF-I) levels: during treatment
[2] = system: HIV/AIDS wasting patients; details: cited from earlier work
[3] = system: ob/ob mice; details: daily injections, cited from earlier work
[4] = system: normal mice; details: cited from earlier work
[5] = system: AIDS patients that manifest symptoms of HADDS; assay: Combined rhGH (SEROSTIM) plus statin therapy in AIDS patients with HADDS symptoms; format: in vivo, human; details: after 3 months; combined therapy versus rhGH alone or statin alone
Method: AIDS patients with a history of long-term use (an average of 12 months) of HAART that manifest symptoms of HADDS, including buffalo humps, central adiposity and peripheral muscle wasting associated with fatigue, along with elevated levels of plasma triglycerides and/or cholesterol are selected for the study. Therapy with rhGH (SEROSTIM®) is initiated in all patients at a dose of e.g., 4 mg/day subcutaneously (other concentrations, e.g., 6 mg/day could be used). At the same time, the patients are treated with a statin in a dosage amount of 40 mg/day, which is administered orally. This dosage amount is based on the average dose of statin drugs commonly administered for antilipemic purposes. The patients are maintained on this […] for three months and monitored every two weeks for improvements of fat maldistribution. In parallel therapies, patients are treated with just rhGH and just statin.

[6] = system: patients with overt AIDS wasting; details: cited from earlier work
[7] = system: patients with HADDS; details: cited from earlier work
[8] = at 12 weeks, not deemed clinically significant (Engleson et al. 1999)
[9] = rhGH 4 to 6 mg/day, by four months (Torres 1999)

## hGH: Human growth hormone, single polypeptide chain of 191 amino acids having two disulfide bonds
[1]; 5.0 mg qod, four patients who completed the study
  weight loss preceding the study: reversed
[2]; in vivo, sc
  safety of supraphysiologic doses: safely administered

## leptin: protein hormone of approximately 16 kDa encoded by the obese (ob) gene; recombinant mouse or human leptin
[3]; within a few days
  food intake: dramatic reduction
[3]; within a month
  reduction in body weight: ~50%
[4]; mouse, in vivo
  adipose tissue: profound depletion of adipose tissue
  body weight: lose weight
  lean mass: increases in lean mass
[4]; no apparent effect on lean tissue, species not stated
  lipolysis in adipose tissue: promotes lipolysis

## rhGH: Recombinant human growth hormone, rhGH, produced by Serono S. A. as SEROSTIM®
[5]
  improvement in fat maldistribution: do not experience as dramatic an improvement
[6]; 0.1 mg/kg/day, 12 weeks, compared to placebo
  lean body mass and weight: significant increases
[6]; 6 mg/day s.c., many patients with overt AIDS wasting
  tolerability of relatively high doses: without developing adverse effects that require dose reduction or cessation of therapy
[1]; 2.5 mg qod
  insulin-like growth factor-I (IGF-I) levels: no significant change
[1]; 5.0 mg qod
  insulin-like growth factor-I (IGF-I) levels: increased significantly
[2]; over 10,000 HIV/AIDS wasting patients since 1996
  effectiveness of a three-month course of therapy: effective in the majority of patients
[7]; Engleson et al. 1999, Mauss et al. 1998
  visceral adiposity: reduce
[7]; Milano et al. 1999
  solitary lipomas: reduce
[7]; Torres 1998, 1999
  buffalo hump: reduce
[7]; Wanke et al. 1999
  abdominal girth: reduce
[7]; [8]
  HDL cholesterol and glucose: increased
  total cholesterol and fasting triglycerides: dropped significantly
[7]; human, in vivo
  collective side effects of rhGH administration: swelling of the fingers or paresthesia due to tissue turgor, a few transient elevations of fasting glucose and triglycerides
[7]; quantified by bioelectrical impedance analysis
  lean body mass and body cell mass: increased
[7]; [9]
  change in peripheral lipodystrophy: no change
  increase in fat free mass: 5 to 10%
  size and firmness of buffalo humps: significantly reduces
  truncal adiposity: reduces
[7]; rhGH 4 to 6 mg/day, during the treatment period (Torres 1999)
  changes in body weight, total body fat, or blood lipids: no significant or consistent changes
[7]; s.c., 3 to 6 mg per day for 12 to 24 weeks
  abnormally accumulated fat, compared to baseline: significantly reduces
